Measurements as given in US8933079B2, “Pyridone and pyridazinone derivatives as anti-obesity agents” (Boehringer Ingelheim International GmbH, priority 2012, dated 2015).

Each molecule was assayed against hMCH-1R (Homo sapiens (Human), UniProt Q99705) (assay: MCH-1 receptor binding test (125I-MCH binding to hMCH-1R transfected cell membranes)). Settings: competition with 100 pM 125I-MCH, membranes of CHO/Galpha16 cells stably transfected with hMCH-1R.
Protocol: Res Commun. […] After the incubation the reaction is filtered using a cell harvester through 0.5% PEI treated fibreglass filters (GF/B, Unifilter Packard). The membrane-bound radioactivity retained on the filter is then determined after the addition of scintillator substance (Packard Microscint 20) in a measuring device (TopCount of Packard). […] The analysis of the concentration binding curve is carried out on the assumption of one receptor binding site.

Sequence of hMCH-1R (Q99705 whole entry): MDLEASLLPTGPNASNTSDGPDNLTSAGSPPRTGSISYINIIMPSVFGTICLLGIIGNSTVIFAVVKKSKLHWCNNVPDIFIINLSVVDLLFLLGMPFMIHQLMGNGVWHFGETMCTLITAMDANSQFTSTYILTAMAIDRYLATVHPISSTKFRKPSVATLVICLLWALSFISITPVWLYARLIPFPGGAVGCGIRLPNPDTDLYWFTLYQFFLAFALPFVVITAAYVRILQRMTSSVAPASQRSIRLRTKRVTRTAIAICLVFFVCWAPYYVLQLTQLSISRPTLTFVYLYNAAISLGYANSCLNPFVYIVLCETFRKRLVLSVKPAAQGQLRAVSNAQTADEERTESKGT

SMILES | IC50 [nM]
Cc1cc(CN2CC[C@H](O)C2)ccc1C(=O)Cn1ncc(OCc2ccccc2)cc1=O [Example 5.5] | 11
CCNCc1ccc(C(=O)Cn2ncc(OCc3ccccc3)cc2=O)c(C)c1 [Example 5.6, 5-Benzyloxy-2-[2-(4-ethylaminomethyl-2-methyl-phenyl)-2-oxo-ethyl]-2H-pyridazin-3-one] | 10
Cc1cc(CN2CC(O)C2)ccc1C(=O)Cn1ncc(OCc2ccccc2)cc1=O [Example 5.7, 5-Benzyloxy-2-{2-[4-(3-hydroxy-azetidin-1-ylmethyl)-2-methyl-phenyl]-2-oxo-ethyl}-2H-pyridazin-3-one] | 10
Cc1cc(CN2CCC(O)CC2)ccc1C(=O)Cn1ncc(OCc2ccccc2)cc1=O [Example 5.8] | 15
Cc1cc(CN2CCOC(C)C2)ccc1C(=O)Cn1ncc(OCc2ccccc2)cc1=O (stereo not drawn) [Example 5.9, 5-Benzyloxy-2-{2-[2-methyl-4-(2-methyl-morpholin-4-ylmethyl)-phenyl]-2-oxo-ethyl}-2H-pyridazin-3-one] | 30
Cc1cc(CN2CCC(CO)CC2)ccc1C(=O)Cn1ncc(OCc2ccccc2)cc1=O [Example 5.11, 5-Benzyloxy-2-{2-[4-(4-hydroxymethyl-piperidin-1-ylmethyl)-2-methyl-phenyl]-2-oxo-ethyl}-2H-pyridazin-3-one] | 13
Cc1cc(CN2CCCC[C@@H]2CO)ccc1C(=O)Cn1ncc(OCc2ccccc2)cc1=O [Example 5.12, (R)-5-Benzyloxy-2-{2-[4-(2-hydroxymethyl-piperidin-1-ylmethyl)-2-methyl-phenyl]-2-oxo-ethyl}-2H-pyridazin-3-one] | 13
Cc1cc(CN2CCC[C@H](O)C2)ccc1C(=O)Cn1ncc(OCc2ccccc2)cc1=O [Example 5.13, (S)-5-Benzyloxy-2-{2-[4-(3-hydroxy-piperidin-1-ylmethyl)-2-methyl-phenyl]-2-oxo-ethyl}-2H-pyridazin-3-one] | 13
Cc1cc(CN2CCC(C)(O)C2)ccc1C(=O)Cn1ncc(OCc2ccccc2)cc1=O (stereo not drawn) [Example 5.14, 5-Benzyloxy-2-{2-[4-(3-hydroxy-3-methyl-pyrrolidin-1-ylmethyl)-2-methyl-phenyl]-2-oxo-ethyl}-2H-pyridazin-3-one] | 10
Cc1cc(CN2CCCC2)ccc1C(=O)Cn1ncc(OCc2ccc(F)cn2)cc1=O [Example 6.1, 5-(5-Fluoro-pyridin-2-ylmethoxy)-2-[2-(2-methyl-4-pyrrolidin-1-ylmethyl-phenyl)-2-oxo-ethyl]-2H-pyridazin-3-one] | 38
Cc1cc(CN2CCCCC2)ccc1C(=O)Cn1ncc(OCc2ccc(F)cn2)cc1=O [Example 6.2, 5-(5-Fluoro-pyridin-2-ylmethoxy)-2-[2-(2-methyl-4-piperidin-1-ylmethyl-phenyl)-2-oxo-ethyl]-2H-pyridazin-3-one] | 35
CCNCc1ccc(C(=O)Cn2ncc(OCc3ccc(F)cn3)cc2=O)c(C)c1 [Example 6.3] | 59
Cc1cc(CN2CCC(O)CC2)ccc1C(=O)Cn1ncc(OCc2ccc(F)cn2)cc1=O [Example 6.4] | 58
Cc1cc(CN2CC[C@H](O)C2)ccc1C(=O)Cn1ncc(OCc2ccc(F)cn2)cc1=O [Example 6.6] | 49
Cc1cc(CN2CCC[C@H]2CO)ccc1C(=O)Cn1ncc(OCc2ccc(Cl)cn2)cc1=O [Example 7.1, (S)-5-(5-Chloro-pyridin-2-ylmethoxy)-2-{2-[4-(2-hydroxymethyl-pyrrolidin-1-ylmethyl)-2-methyl-phenyl]-2-oxo-ethyl}-2H-pyridazin-3-one] | 26
CCN1CCN(Cc2ccc(C(=O)Cn3ncc(OCc4ccc(Cl)cn4)cc3=O)c(C)c2)CC1 [Example 7.2] | 71

SMILES | IC50 [nM]
Cc1cc(CN2CC(O)C2)ccc1C(=O)Cn1ncc(OCc2ccc(Cl)cn2)cc1=O [Example 7.3] | 27
Cc1cc(CN2CCN(C)CC2)ccc1C(=O)Cn1ncc(OCc2ccc(Cl)cn2)cc1=O [Example 7.4] | 67
Cc1cc(CN2CCCCC2)ccc1C(=O)Cn1ncc(OCc2ccc(Cl)cn2)cc1=O [Example 7.5] | 16
CNCc1ccc(C(=O)Cn2ncc(OCc3ccc(Cl)cn3)cc2=O)c(C)c1 [Example 7.6, 5-(5-Chloro-pyridin-2-ylmethoxy)-2-[2-(2-methyl-4-methylaminomethyl-phenyl)-2-oxo-ethyl]-2H-pyridazin-3-one] | 28
CCNCc1ccc(C(=O)Cn2ncc(OCc3ccc(Cl)cn3)cc2=O)c(C)c1 [Example 7.7, 5-(5-Chloro-pyridin-2-ylmethoxy)-2-[2-(4-ethylaminomethyl-2-methyl-phenyl)-2-oxo-ethyl]-2H-pyridazin-3-one] | 18
Cc1cc(CN2CCC(CO)CC2)ccc1C(=O)Cn1ncc(OCc2ccc(Cl)cn2)cc1=O [Example 7.8] | 26
Cc1cc(CN2CC[C@@H](O)C2)ccc1C(=O)Cn1ncc(OCc2ccc(Cl)cn2)cc1=O [Example 7.9] | 32
Cc1cc(CN2CCC[C@H](O)C2)ccc1C(=O)Cn1ncc(OCc2ccc(Cl)cn2)cc1=O [Example 7.10] | 25
Cc1cc(CN2CCC[C@@H](O)C2)ccc1C(=O)Cn1ncc(OCc2ccc(Cl)cn2)cc1=O [Example 7.11] | 31
Cc1cc(CN2CC[C@H](O)C2)ccc1C(=O)Cn1ncc(OCc2ccc(Cl)cn2)cc1=O [Example 7.12] | 30
Cc1cc(CN2CCCC[C@@H]2CO)ccc1C(=O)Cn1ncc(OCc2ccc(Cl)cn2)cc1=O [Example 7.13, (R)-5-(5-Chloro-pyridin-2-ylmethoxy)-2-{2-[4-(2-hydroxymethyl-piperidin-1-ylmethyl)-2-methyl-phenyl]-2-oxo-ethyl}-2H-pyridazin-3-one] | 35
Cc1cc(CN2CCC(O)CC2)ccc1C(=O)Cn1ncc(OCc2ccc(Cl)cn2)cc1=O [Example 7.14, 5-(5-Chloro-pyridin-2-ylmethoxy)-2-{2-[4-(4-hydroxy-piperidin-1-ylmethyl)-2-methyl-phenyl]-2-oxo-ethyl}-2H-pyridazin-3-one] | 30
Cc1cc(CN2CCCC2)ccc1C(=O)Cn1ncc(OCc2ccc(Cl)cn2)cc1=O [Example 7.15, 5-(5-Chloro-pyridin-2-ylmethoxy)-2-[2-(2-methyl-4-pyrrolidin-1-ylmethyl-phenyl)-2-oxo-ethyl]-2H-pyridazin-3-one] | 19
Cc1cc(CN(C)C)ccc1C(=O)Cn1ncc(OCc2ccc(Cl)cn2)cc1=O [Example 7.16, 5-(5-Chloro-pyridin-2-ylmethoxy)-2-[2-(4-dimethylaminomethyl-2-methyl-phenyl)-2-oxo-ethyl]-2H-pyridazin-3-one] | 24
Cc1cc(CN2CCNCC2)ccc1C(=O)Cn1ncc(OCc2ccc(Cl)cn2)cc1=O [Example 7.17, 5-(5-Chloro-pyridin-2-ylmethoxy)-2-[2-(2-methyl-4-piperazin-1-ylmethyl-phenyl)-2-oxo-ethyl]-2H-pyridazin-3-one] | 83

Continued, values first:

IC50 [nM] | SMILES
22 | Cc1cc(CN2CC[C@@H](O)C2)ccc1C(=O)Cn1ncc(OCc2ccc(Br)cn2)cc1=O [Example 8.1, (R)-5-(5-Bromo-pyridin-2-ylmethoxy)-2-{2-[4-(3-hydroxy-pyrrolidin-1-ylmethyl)-2-methyl-phenyl]-2-oxo-ethyl}-2H-pyridazin-3-one]
19 | Cc1cc(CN2CC(O)C2)ccc1C(=O)Cn1ncc(OCc2ccc(Br)cn2)cc1=O [Example 8.2, 5-(5-Bromo-pyridin-2-ylmethoxy)-2-{2-[4-(3-hydroxy-azetidin-1-ylmethyl)-2-methyl-phenyl]-2-oxo-ethyl}-2H-pyridazin-3-one]
24 | Cc1cc(CN2CCC[C@H](O)C2)ccc1C(=O)Cn1ncc(OCc2ccc(Br)cn2)cc1=O [Example 8.4]
18 | Cc1cc(CN2CCC(C)(O)C2)ccc1C(=O)Cn1ncc(OCc2ccc(Br)cn2)cc1=O (stereo not drawn) [Example 8.5]
21 | Cc1cc(CN2CCC[C@@H](O)C2)ccc1C(=O)Cn1ncc(OCc2ccc(Br)cn2)cc1=O [Example 8.6, (R)-5-(5-Bromo-pyridin-2-ylmethoxy)-2-{2-[4-(3-hydroxy-piperidin-1-ylmethyl)-2-methyl-phenyl]-2-oxo-ethyl}-2H-pyridazin-3-one]
20 | Cc1cc(CN2CCCC[C@@H]2CO)ccc1C(=O)Cn1ncc(OCc2ccc(Br)cn2)cc1=O [Example 8.7, (R)-5-(5-Bromo-pyridin-2-ylmethoxy)-2-{2-[4-(2-hydroxymethyl-piperidin-1-ylmethyl)-2-methyl-phenyl]-2-oxo-ethyl}-2H-pyridazin-3-one]
17 | CCNCc1ccc(C(=O)Cn2ncc(OCc3ccc(Br)cn3)cc2=O)c(C)c1 [Example 8.8, 5-(5-Bromo-pyridin-2-ylmethoxy)-2-[2-(4-ethylaminomethyl-2-methyl-phenyl)-2-oxo-ethyl]-2H-pyridazin-3-one]
18 | Cc1cc(CN2CCC(O)CC2)ccc1C(=O)Cn1ncc(OCc2ccc(Br)cn2)cc1=O [Example 8.9, 5-(5-Bromo-pyridin-2-ylmethoxy)-2-{2-[4-(4-hydroxy-piperidin-1-ylmethyl)-2-methyl-phenyl]-2-oxo-ethyl}-2H-pyridazin-3-one]
25 | CNCc1ccc(C(=O)Cn2ncc(OCc3ccc(Br)cn3)cc2=O)c(C)c1 [Example 8.10, 5-(5-Bromo-pyridin-2-ylmethoxy)-2-[2-(2-methyl-4-methylaminomethyl-phenyl)-2-oxo-ethyl]-2H-pyridazin-3-one]
21 | Cc1cc(CN2CCC[C@H]2CO)ccc1C(=O)Cn1ncc(OCc2ccc(Br)cn2)cc1=O [Example 8.11]
34 | COc1ccc(COc2cnn(CC(=O)c3ccc(CN4CCC(O)CC4)cc3C)c(=O)c2)nc1 [Example 9.2, 2-{2-[4-(4-Hydroxy-piperidin-1-ylmethyl)-2-methyl-phenyl]-2-oxo-ethyl}-5-(5-methoxy-pyridin-2-ylmethoxy)-2H-pyridazin-3-one]
